{"source": "patent US12128035B2", "about": "“Activating pyruvate kinase R” (Novo Nordisk Health Care AG, priority 2021, dated 2024)", "key": {"[1]": {"experiment": "Phase 1 SAD/MAD: safety (adverse events) in healthy volunteers", "format": "in vivo, human", "experimental": "In this study, SAD/MAD cohorts are randomized (3 to 1) to receive Compound 1 or placebo (P). Compound 1 was evaluated first in 4 healthy SAD cohorts and 4 healthy MAD (14-day dosing period) cohorts. Based on the safety, and PK/PD profile from HS, Compound 1 is then evaluated in 1 SCD SAD cohort and 2 SCD MAD cohorts. Specifically, based on the safety and pharmacokinetic/pharmacodynamics (PK/PD) profile in healthy volunteer studies, Compound 1 is evaluated in patients (pts) with SCD, first in a single dose (SD or SAD) cohort and then in multiple-dose (MD or MAD) cohorts (14-day and 12-week). Safety assessments include AEs, vital signs, ECGs and laboratory parameters. PK/PD blood sampling was performed on Day 1 (SAD/MAD) and Day 14 (MAD) and up to 72 h after the last dose and at the end-of-study visit. PD parameters included 2,3-DPG, ATP, and p50 in all cohorts with additional PD studies (including oxygen scan) performed only in the SCD cohorts. PD parameters included 2,3-DPG, ATP, p50, RBC deformability with controlled deoxygenation and reoxygenation (Lorrca® oxygen scan) and varying osmolality (Lorrca® osmoscan)). To maintain study blind, pt identifiers were removed when needed.\nOutcome Measures Primary Outcome Measures: • 1. Incidence, frequency, and severity of adverse events (AEs) per CTCAE v5.0 of a single ascending dose and multiple ascending doses of Compound 1 in adult healthy volunteers and SCD patients. Incidence of abnormal laboratory test results (clinical chemistry, endocrine hematology, urinalysis). Change from baseline in vital signs (blood pressure, respiratory rate, heart rate, and oral temperature). Incidence of treatment-emergent clinically significant abnormal findings in ECGs. • [Time Frame: Up to 3 weeks of monitoring] • 2. […] Area under the plasma concentration-time curve from time zero until the 24-hour time point (AUC0-24) • [Time Frame: Up to 3 weeks of testing] • 5. Area under the plasma concentration-time curve from time zero until last quantifiable time point (AUC0-last) • [Time Frame: Up to 3 weeks of testing] • 6. Area under the plasma concentration-time curve from time zero to infinity (AUC0-inf) • [Time Frame: Up to 3 weeks of testing] • 7. […] Apparent volume of distribution (Vd/F) • [Time Frame: Up to 3 weeks of testing] • 10. Terminal disposition rate constant (Lz) • [Time Frame: Up to 3 weeks of testing] • 11. […] Secondary Outcome Measures: • 12. Change from baseline in the levels of 2,3-diphosphoglycerate (DPG) and adenosine triphosphate (ATP) in the red blood cells (RBCs) of healthy volunteers and SCD patients after single and multiple doses of Compound 1. • [Time Frame: Up to 3 weeks of testing] • 13. […] Change from baseline heart rate after a single dose of Compound 1 in healthy volunteers and/or SCD subjects • [Time Frame: up to 7 days] • 15. Change from baseline PR after a single dose of Compound 1 in healthy volunteers and/or SCD subjects • [Time Frame: up to 7 days] • 16. Change from baseline QRS (AHR, APR, and AQRS) after a single dose of Compound 1 in healthy volunteers and/or SCD subjects • [Time Frame: up to 7 days] • 17. Change from baseline T-wave morphology after a single dose of Compound 1 in healthy volunteers and/or SCD subjects • [Time Frame: up to 7 days] Exploratory Outcome Measures: • 18. Effect of food on Cmax, AUC0-24/AUClast • 19. Effect of AUClast/AUC0-24, Cmax, minimum plasma concentration (Cmin), peak-to trough ratio, dose linearity, accumulation ratio on safety, PD, and hematologic parameters of interest, as assessed by exposure-response analyses • 20. Effect of 2,3-DPG reduction in RBCs on the oxyhemoglobin dissociation curve (p50; partial pressure of O2 at which 50% of hemoglobin is saturated with O2) after a single dose and after chronic dosing of Compound 1 • 21. Effect of chronic Compound 1 dosing on normal and SCD RBC deformability by osmotic gradient ektacytometry and oxygen gradient ektacytometry • 22. […]"}, "[2]": {"format": "physicochemical", "excerpt": "[drawing 2] is a selective, orally bioavailable PKR Activating Compound that decreases 2,3-DPG, increases ATP, and has anti-sickling effects in disease models with a wide therapeutic margin relative to preclinical toxicity. Compound 1 is a potent activator of PKR and a multi-modal metabolic modulator of RBCs. Activation of PKR simultaneously reduces 2,3-DPG concentrations, which increases hemoglobin-oxygen affinity and decreases sickling, while also increasing intracellular ATP, which improves RBC health and reduces hemolysis, or RBC death. Compound 1 is a BCS class II compound with poor water solubility and high permeability."}, "[3]": {"tested_on": "panels of receptors, enzymes, ion channels, and kinases", "experiment": "Preclinical safety: arrhythmia risk, mutagenicity, nonspecific binding panels", "conditions": "in vitro panels"}, "[4]": {"tested_on": "Red blood cells from SCD patients", "experiment": "Ex vivo Hgb oxygen equilibrium curves in SCD RBCs", "format": "cell-based, human", "conditions": "10 μM", "experimental": "Red blood cells from SCD patients were used to evaluate the effects of Compound 1 on Hgb affinity for oxygen (i.e., oxygen affinity) and sickling under hypoxic conditions. Cells were incubated at 37° C. for 1, 2, and 3 hr with HEPES buffered saline (HBS) (untreated), HBS+dimethyl sulfoxide (DMSO) (vehicle), or 10 μM Compound 1. To assess oxygen dissociation, Hgb oxygen equilibrium curves were collected during deoxygenation."}}, "data": [{"smiles": "O=C([C@H](CO)c1ccccc1)N1CC2=C(C1)CN(S(=O)(=O)c1cnc3c(c1)OCCO3)C2", "note": "(single isomer, unassigned) [Compound 1]", "values": [{"measurement": "Grade 1 headache (most common AE)", "setting": "[1]; HS receiving 14 days", "value": 28, "unit": "%"}, {"measurement": "Grade 1 headache (most common AE)", "setting": "[1]; HS receiving a single dose", "value": 4, "unit": "%"}, {"measurement": "Any TEAE, n (%)", "setting": "[1]; HV MAD Compound 1 N = 36", "value": "15 (42) n (%)"}, {"measurement": "Any grade 3 or greater TEAE, n (%)", "setting": "[1]; HV MAD Compound 1 N = 36", "value": "0 n (%)"}, {"measurement": "Drug interruption, reduction, or discontinuation due to TEAE, n (%)", "setting": "[1]; HV MAD Compound 1 N = 36", "value": "0 n (%)"}, {"measurement": "related TEAE of grade 2 or less: headache", "setting": "[1]; HV MAD cohorts", "value": 4, "unit": "n"}, {"measurement": "related TEAE of grade 2 or less: palpitations", "setting": "[1]; HV MAD cohorts", "value": 1, "unit": "n"}, {"measurement": "related TEAE of grade 2 or less: somnolence", "setting": "[1]; HV MAD cohorts", "value": 1, "unit": "n"}, {"measurement": "Any TEAE, n (%)", "setting": "[1]; HV SAD Compound 1 N = 24", "value": "5 (21) n (%)"}, {"measurement": "Any grade 3 or greater TEAE, n (%)", "setting": "[1]; HV SAD Compound 1 N = 24", "value": "1 (4) n (%)"}, {"measurement": "Drug interruption, reduction, or discontinuation due to TEAE, n (%)", "setting": "[1]; HV SAD Compound 1 N = 24", "value": "0 n (%)"}, {"measurement": "related TEAE of grade 2 or less: headache", "setting": "[1]; HV SAD cohorts", "value": 1, "unit": "n"}, {"measurement": "related TEAE of grade 2 or less: transient ventricular tachycardia", "setting": "[1]; HV SAD cohorts", "value": 1, "unit": "n"}, {"measurement": "serious adverse events / AEs leading to withdrawal", "setting": "[1]; SAD and MAD cohorts of healthy volunteers", "value": "No serious adverse events (SAEs) or AEs leading to withdrawal were reported"}, {"measurement": "BCS class", "setting": "[2]", "value": "BCS class II"}, {"measurement": "preclinical evidence of arrhythmia risk, mutagenicity, nonspecific binding", "setting": "[3]", "value": "has not demonstrated any preclinical evidence of arrhythmia risk, mutagenicity, or nonspecific binding activity"}, {"measurement": "Hgb saturation higher compared to DMSO-treated cells", "setting": "[4]; 2 hr", "value": "approximately 10%"}, {"measurement": "p50", "setting": "[4]; after 1 hr, shifted from 29 mmHg", "value": 25, "unit": "mmHg"}, {"measurement": "Hemoglobin Saturation", "setting": "[4]; incubation 1 hr, normalized to 1.00 (DMSO 1.18)", "value": 1.05}, {"measurement": "Hemoglobin Saturation", "setting": "[4]; incubation 2 hr, normalized to 1.00 (DMSO 1.18)", "value": 1.00}, {"measurement": "Hemoglobin Saturation", "setting": "[4]; incubation 3 hr, normalized to 1.00 (DMSO 1.30)", "value": 1.02}]}]}
